{
  "source": "patent US11541056B2",
  "about": "“3-hydroxy-N-(3-(7H-pyrrolo[2,3-d]pyrimidin-4-yl)phenyl)pyrrolidine-1-carboxamide derivatives” (NOVARTIS AG, priority 2018, dated 2023)",
  "key": {"BTK-GFP": {"molecular_target": "T1, BTK-GFP (Homo sapiens, UniProt Q06187+Q96SW2)", "T1 construct": "the BTK open reading frame (ORF) was first shuttled from a pcDNA-DEST40-BTK vector (Invitrogen library ID INV_20090504v1); expressed in transfected cells; host or cells: HEK293A cells (Invitrogen R70507), lentiviral transduction with pLenti6-BTK-GFP-Ires-RFP, blasticidin-selected", "T1 sequence (Q06187 whole entry)": "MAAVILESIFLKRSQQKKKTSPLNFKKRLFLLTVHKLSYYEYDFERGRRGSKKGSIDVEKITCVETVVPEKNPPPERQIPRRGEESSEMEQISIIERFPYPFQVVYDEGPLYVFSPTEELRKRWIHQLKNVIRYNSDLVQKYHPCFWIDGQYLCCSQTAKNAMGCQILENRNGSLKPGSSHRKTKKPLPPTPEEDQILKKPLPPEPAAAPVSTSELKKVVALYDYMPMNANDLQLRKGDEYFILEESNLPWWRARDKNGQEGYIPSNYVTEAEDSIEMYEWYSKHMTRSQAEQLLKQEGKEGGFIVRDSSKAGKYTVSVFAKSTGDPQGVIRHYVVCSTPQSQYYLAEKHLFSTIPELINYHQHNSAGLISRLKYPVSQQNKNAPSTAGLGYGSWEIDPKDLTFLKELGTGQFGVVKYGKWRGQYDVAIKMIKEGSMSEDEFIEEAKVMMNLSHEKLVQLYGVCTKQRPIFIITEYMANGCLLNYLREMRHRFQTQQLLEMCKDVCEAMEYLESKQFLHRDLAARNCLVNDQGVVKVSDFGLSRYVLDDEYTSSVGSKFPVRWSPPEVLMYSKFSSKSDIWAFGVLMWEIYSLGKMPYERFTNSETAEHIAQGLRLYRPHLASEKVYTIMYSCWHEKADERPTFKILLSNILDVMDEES", "T1 sequence (Q96SW2 whole entry)": "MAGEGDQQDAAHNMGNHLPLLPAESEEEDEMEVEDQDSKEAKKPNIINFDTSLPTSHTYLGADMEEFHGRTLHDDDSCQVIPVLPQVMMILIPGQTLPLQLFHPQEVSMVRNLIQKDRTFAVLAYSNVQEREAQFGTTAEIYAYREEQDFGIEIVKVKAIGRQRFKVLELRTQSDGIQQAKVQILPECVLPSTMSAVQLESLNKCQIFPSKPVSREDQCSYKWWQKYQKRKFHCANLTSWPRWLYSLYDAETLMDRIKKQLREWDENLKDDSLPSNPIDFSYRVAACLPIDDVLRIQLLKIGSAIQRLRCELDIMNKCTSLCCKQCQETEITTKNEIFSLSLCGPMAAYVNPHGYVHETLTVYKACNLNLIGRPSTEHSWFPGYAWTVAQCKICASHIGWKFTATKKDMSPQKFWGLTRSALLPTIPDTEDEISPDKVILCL", "T1 sequence (Q16531 whole entry partner)": "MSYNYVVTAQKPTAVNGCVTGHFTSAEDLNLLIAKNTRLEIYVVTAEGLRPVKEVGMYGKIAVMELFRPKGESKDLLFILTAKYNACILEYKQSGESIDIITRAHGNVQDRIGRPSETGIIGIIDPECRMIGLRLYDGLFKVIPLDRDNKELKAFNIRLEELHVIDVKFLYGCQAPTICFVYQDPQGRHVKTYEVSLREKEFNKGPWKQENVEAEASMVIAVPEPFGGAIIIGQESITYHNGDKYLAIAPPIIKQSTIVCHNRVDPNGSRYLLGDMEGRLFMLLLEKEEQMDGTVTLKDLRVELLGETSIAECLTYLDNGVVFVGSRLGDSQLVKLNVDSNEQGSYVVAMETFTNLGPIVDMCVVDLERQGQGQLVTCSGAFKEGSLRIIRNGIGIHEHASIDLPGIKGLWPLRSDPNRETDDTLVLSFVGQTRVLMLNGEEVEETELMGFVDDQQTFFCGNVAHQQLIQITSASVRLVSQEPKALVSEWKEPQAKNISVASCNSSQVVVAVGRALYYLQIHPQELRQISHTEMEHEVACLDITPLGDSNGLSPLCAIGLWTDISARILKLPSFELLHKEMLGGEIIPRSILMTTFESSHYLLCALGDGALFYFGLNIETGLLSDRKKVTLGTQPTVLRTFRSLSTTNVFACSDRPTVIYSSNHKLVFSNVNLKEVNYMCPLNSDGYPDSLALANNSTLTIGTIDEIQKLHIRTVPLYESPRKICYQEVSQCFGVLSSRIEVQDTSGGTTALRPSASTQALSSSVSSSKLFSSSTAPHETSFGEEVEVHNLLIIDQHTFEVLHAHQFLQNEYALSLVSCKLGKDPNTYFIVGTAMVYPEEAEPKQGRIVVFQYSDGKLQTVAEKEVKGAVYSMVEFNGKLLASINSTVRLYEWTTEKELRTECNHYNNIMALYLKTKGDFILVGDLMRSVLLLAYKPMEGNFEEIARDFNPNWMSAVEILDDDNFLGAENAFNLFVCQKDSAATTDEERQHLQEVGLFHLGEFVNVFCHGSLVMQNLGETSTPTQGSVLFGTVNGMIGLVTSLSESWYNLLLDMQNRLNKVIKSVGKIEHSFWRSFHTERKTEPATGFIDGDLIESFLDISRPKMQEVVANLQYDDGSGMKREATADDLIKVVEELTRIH", "test": "BTK-GFP protein abundance flow cytometry assay in HEK293A cells", "format": "cell-based", "conditions": "24 h", "in_short": "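HEK293A cells stably expressing BTK-GFP-iresRFP treated 24 h at 37° C with 10-point 1:3 dilutions from 10 μM (0.1% DMSO), in duplicate. Median GFP of 5,000 single cells by flow cytometry, normalized to GFP-negative iresRFP cells (0%) and DMSO (100%); DC50 from concentration-response curves.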"}, "IKZF3-GFP": {"molecular_target": "T2, IKZF3-GFP (Homo sapiens, UniProt Q9UKT9)", "T2 construct": "gateway cloning of IKZF3 from a pENTR221-IKZF3(STOP-Leu) construct into the previously described pLenti6-DEST-GFP-Ires-RFP vector; expressed in transfected cells; host or cells: HEK293A cells (Invitrogen R70507), lentiviral transduction with pLenti6-IKZF3-GFP-Ires-RFP, blasticidin-selected", "T2 sequence (Q96SW2 whole entry partner)": "as the sequence (Q96SW2 whole entry) above", "T2 sequence (Q16531 whole entry partner)": "as the sequence (Q16531 whole entry partner) above", "T2 sequence (Q9UKT9 whole entry)": "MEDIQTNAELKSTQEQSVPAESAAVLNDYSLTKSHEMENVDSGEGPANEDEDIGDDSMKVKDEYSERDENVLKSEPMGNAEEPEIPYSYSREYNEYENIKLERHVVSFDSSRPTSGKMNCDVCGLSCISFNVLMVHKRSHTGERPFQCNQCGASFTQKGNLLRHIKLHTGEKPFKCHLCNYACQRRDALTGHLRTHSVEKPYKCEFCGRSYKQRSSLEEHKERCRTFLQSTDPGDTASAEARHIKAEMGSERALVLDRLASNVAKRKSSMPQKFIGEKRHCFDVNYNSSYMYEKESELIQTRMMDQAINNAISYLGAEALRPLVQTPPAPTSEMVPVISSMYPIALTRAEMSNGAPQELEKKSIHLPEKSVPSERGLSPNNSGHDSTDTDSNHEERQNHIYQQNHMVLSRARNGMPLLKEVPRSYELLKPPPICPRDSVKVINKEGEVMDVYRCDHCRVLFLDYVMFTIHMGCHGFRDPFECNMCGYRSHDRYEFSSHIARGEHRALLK", "test": "IKZF3-GFP protein abundance flow cytometry assay in HEK293A cells", "format": "cell-based", "conditions": "24 h, Table 1", "protocol": "Compounds of the invention were tested in the following cellular assays. […] TMD8 cells are BTK dependent and OCI-LY3 cells are BTK independent.\nBTK-GFP and IKZF3-GFP Protein Abundance Flow Cytometry Assay in HEK293A Cells:\nDegradation of BTK or IKZF3 was measured in HEK293A cells (Invitrogen R70507) expressing either BTK-GFP and RFP or IKZF3-GFP and RFP from a stably integrated bicistronic BTK-GFP-iresRFP or IKZF3-GFP-iresRFP construct, respectively. Reduction of the GFP signal measured by flow cytometry served as readout for BTK or IKZF3 degradation after degrader treatment.\nStable HEK293A-BTK-GFP-iresRFP cells were maintained in complete growth medium (DMEM high Glucose+10% FCS+1% L-Glutamine+1% NEAA+1% NaPyr.) with passaging performed twice per week. On Day 0, HEK293A-BTK-GFP-iresRFP or HEK293A-IKZF3-GFP-iresRFP and HEK293A-iresRFP cells were seeded at 10,000 cells/well in a 96-well microtiter plate in 260 μl complete medium. On Day 1, cells were treated in duplicate with 10-point 1:3 dilution series of compound using the HP D300 Digital Dispenser (Tecan). DMSO concentrations were normalized across the plate to 0.1%. On Day 2, after 24 h of incubation at 37° C., treatment media was discarded, cells rinsed with 100 ul/well PBS and then detached using 40 ul trypsin/well for 5 min. Trypsin was neutralized with 100 ul/well PBS+20% FCS). Flow cytometry was performed on the samples using the BD FACS CANTO II (Becton Dickinson). Cell identification was then performed using forward (FSC) vs. side scatter (SSC) plots. Single cell discrimination is performed using SSC-Width (SSC-W) vs. SSC-Height (SSC-H) plots. Median GFP values for 5,000 single cells are used to determine BTK levels. Median GFP values from HEK293A-iresRFP are used as a background signal and thus defining 0% BTK signal. Median GFP values from DMSO treated HEK293A-BTK-GFP-iresRFP or HEK293A-IKZF3-GFP-iresRFP are used to define 100% BTK signal for subsequent DC50 curves (concentration at 50% BTK degradation). GFP and RFP are read in the channels called FITC and PE, respectively.\nConcentration response curves plotting relative reduction of the GFP signal (measured by flow cytometry) versus 10 compound concentrations (starting concentration 10 μM, 3 fold dilution steps) of the compounds allowed generation of DC50 values.\nData is shown in Table 2, in which, DC50 refers to the concentration at which 50% maximal degradation was observed; deg Amax is the extent of degradation and the value refers to the % protein remaining at the concentration at which maximum degradation is seen."}},
  "data": [
    {"compound": "COc1ccc(C(=O)N2CCC(CCN3CCC(OCc4ccc(-c5cc6c(-c7cc(F)cc(NC(=O)N8C[C@H](CC(C)C)[C@@H](O)C8)c7C)ncnc6[nH]5)cc4)CC3)CC2)cc1N1CCC(=O)NC1=O", "note": "[Compound 22, (3R,4S)—N-(3-(6-(4-(((1-(2-(1-(3-(2,4-Dioxotetrahydropyrimidin-1 (2H)-yl)-4-methoxybenzoyl)piperidin-4-yl)ethyl)piperidin-4-yl)oxy)methyl)phenyl)-7H-pyrrolo[2,3-d]pyrimidin-4-yl)-5-fluoro-2-methylphenyl)-3-hydroxy-4-isobutylpyrrolidine-1-carboxamide]", "values": [
      {"measurement": "BTK deg Amax %", "setting": "BTK-GFP; % protein remaining at concentration of maximum degradation", "result": 1.4, "unit": "%"},
      {"measurement": "DC50", "setting": "BTK-GFP; concentration at which 50% maximal degradation was observed", "result": 1.4, "unit": "nM"},
      {"measurement": "IKZF3 deg Amax %", "setting": "IKZF3-GFP; % protein remaining at maximum degradation", "result": 100.2, "unit": "%"},
      {"measurement": "DC50", "setting": "IKZF3-GFP", "result": "> 1100", "unit": "nM"}
    ]}
  ]
}
